Experimental data taken from patent US11530204B2, “Biocatalytic synthesis of cryptophycin anticancer agents” (priority 2019, dated 2022).

Columns and labels:
[1] = test system: HCT-116 human colorectal cancer cell line; test: IC50 in HCT-116 human colorectal cancer cell line; type: cell-based; details: for IC50: Homo sapiens
Procedure: Each of the cryptophycin analogs was assessed using a zone assay as a relative comparison of potency over a variety of cell lines (see Table 1), and the IC50 for each analog was determined in the HCT-116 human colorectal cancer cell line.

[2] = test system: platinum-resistant ovarian cancer; details: cited from earlier work

| SMILES | IC50 [1] [nM] | other results |
| --- | --- | --- |
| COc1ccc(C[C@H]2NC(=O)/C=C/C[C@@H]([C@H](C)/C=C/c3ccccn3)OC(=O)[C@H](CC(C)C)OC(=O)[C@H](C)CNC2=O)cc1Cl [2 pyridyl, (3S,6R,10R,16S,E)-10-(3-chloro-4-methoxybenzyl)-3-isobutyl-6-methyl-16-((R,E)-4-(pyridin-2-yl)but-3-en-2-yl)-1,4-dioxa-8,11-diazacyclohexadec-13-ene-2,5,9,12-tetraone] | 102 | – |
| COc1ccc(C[C@H]2NC(=O)/C=C/C[C@@H]([C@H](C)/C=C/c3cccnc3)OC(=O)[C@H](CC(C)C)OC(=O)[C@H](C)CNC2=O)cc1Cl [3 pyridyl, (3S,6R,10R,16S,E)-10-(3-chloro-4-methoxybenzyl)-3-isobutyl-6-methyl-16-((R,E)-4-(pyridin-3-yl)but-3-en-2-yl)-1,4-dioxa-8,11-diazacyclohexadec-13-ene-2,5,9,12-tetraone] | 0.86 | – |
| COc1ccc(C[C@H]2NC(=O)/C=C/C[C@@H]([C@H](C)/C=C/c3cnn(C)c3)OC(=O)[C@H](CC(C)C)OC(=O)[C@H](C)CNC2=O)cc1Cl [4 methyl pyrazole, (3S,6R,10R,16S,E)-10-(3-chloro-4-methoxybenzyl)-3-isobutyl-6-methyl-16-((R,E)-4-(1-methyl-1H-pyrazol-4-yl)but-3-en-2-yl)-1,4-dioxa-8,11-diazacyclohexadec-13-ene-2,5,9,12-tetraone] | – | potency in words [1]: low pico-molar |
| COc1ccc(C[C@H]2NC(=O)/C=C/C[C@@H]([C@H](C)/C=C/c3ccncc3)OC(=O)[C@H](CC(C)C)OC(=O)[C@H](C)CNC2=O)cc1Cl [4 pyridyl, (3S,6R,10R,16S,E)-10-(3-chloro-4-methoxybenzyl)-3-isobutyl-6-methyl-16-((R,E)-4-(pyridin-4-yl)but-3-en-2-yl)-1,4-dioxa-8,11-diazacyclohexadec-13-ene-2,5,9,12-tetraone] | 0.51 | – |
| COc1ccc(C[C@H]2NC(=O)/C=C/C[C@@H]([C@H](C)[C@H]3O[C@@H]3c3ccccc3)OC(=O)[C@H](CC(C)C)OC(=O)C(C)(C)CNC2=O)cc1Cl [cryptophycin 52] | – | dose-limiting toxicity ([2]; clinical trials): dose-limiting peripheral neuropathy; clinical outcome ([2]; platinum-resistant ovarian cancer): significant disease stabilization |
